From ChEMBL document CHEMBL1909046, “DrugMatrix in vitro pharmacology data”

Assays:
[1] = target: T1, Alpha-1D adrenergic receptor (Homo sapiens, UniProt P25100); assay type: cell membranes, HEK293, Membrane; details: hek293; further: in other assays of this panel Not Active means under 50% inhibition at 10 µM
T1 sequence (P25100 whole entry): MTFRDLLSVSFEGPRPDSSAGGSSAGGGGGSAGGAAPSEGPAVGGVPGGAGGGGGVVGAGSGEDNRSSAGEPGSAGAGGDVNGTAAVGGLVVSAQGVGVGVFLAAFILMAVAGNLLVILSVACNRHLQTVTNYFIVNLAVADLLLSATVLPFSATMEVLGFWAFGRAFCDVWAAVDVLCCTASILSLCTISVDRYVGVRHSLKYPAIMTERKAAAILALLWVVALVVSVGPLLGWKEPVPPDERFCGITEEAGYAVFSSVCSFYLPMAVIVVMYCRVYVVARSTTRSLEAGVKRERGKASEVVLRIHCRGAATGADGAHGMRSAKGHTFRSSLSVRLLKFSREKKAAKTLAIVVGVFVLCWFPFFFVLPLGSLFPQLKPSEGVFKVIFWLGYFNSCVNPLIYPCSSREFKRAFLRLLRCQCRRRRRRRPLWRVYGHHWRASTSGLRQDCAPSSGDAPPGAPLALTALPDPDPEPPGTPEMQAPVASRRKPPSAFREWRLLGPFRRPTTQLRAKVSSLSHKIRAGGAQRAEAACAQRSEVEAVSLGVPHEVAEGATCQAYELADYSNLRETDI

[2] = DRUGMATRIX: Imidazoline I2, Central radioligand binding (ligand: [3H] Idazoxan); assay type: cell membranes, Rattus norvegicus, Wistar, Cerebral cortex, Membrane; details: Not Active = under 50% inhibition at 10 µM
Insulin receptor = Insulin receptor (Rattus norvegicus, UniProt P15127); assay type: cell membranes, Wistar, Liver, Membrane; further: in other assays of this panel Not Active means under 50% inhibition at 10 µM
Insulin receptor, sequence (P15127 27-759 limits assumed): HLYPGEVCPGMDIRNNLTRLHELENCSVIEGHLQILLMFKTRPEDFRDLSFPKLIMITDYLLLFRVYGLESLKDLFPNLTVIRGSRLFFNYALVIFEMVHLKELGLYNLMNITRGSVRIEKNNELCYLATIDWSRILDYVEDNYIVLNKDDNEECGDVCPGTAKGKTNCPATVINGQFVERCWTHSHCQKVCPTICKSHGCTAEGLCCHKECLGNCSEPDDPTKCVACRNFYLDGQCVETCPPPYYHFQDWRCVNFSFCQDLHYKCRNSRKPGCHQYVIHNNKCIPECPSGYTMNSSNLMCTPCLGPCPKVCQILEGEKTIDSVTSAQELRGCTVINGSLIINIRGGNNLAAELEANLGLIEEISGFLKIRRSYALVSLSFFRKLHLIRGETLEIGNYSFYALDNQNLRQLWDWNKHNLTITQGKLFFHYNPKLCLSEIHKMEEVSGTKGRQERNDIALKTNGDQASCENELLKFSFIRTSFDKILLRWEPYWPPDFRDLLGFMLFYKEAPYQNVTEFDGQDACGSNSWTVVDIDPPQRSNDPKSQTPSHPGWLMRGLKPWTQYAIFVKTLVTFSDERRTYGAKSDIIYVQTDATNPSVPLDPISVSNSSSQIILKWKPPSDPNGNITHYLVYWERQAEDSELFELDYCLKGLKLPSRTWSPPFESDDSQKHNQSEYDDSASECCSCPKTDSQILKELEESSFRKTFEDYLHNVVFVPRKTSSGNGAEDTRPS
Insulin receptor, sequence (P15127 764-1383 limits assumed): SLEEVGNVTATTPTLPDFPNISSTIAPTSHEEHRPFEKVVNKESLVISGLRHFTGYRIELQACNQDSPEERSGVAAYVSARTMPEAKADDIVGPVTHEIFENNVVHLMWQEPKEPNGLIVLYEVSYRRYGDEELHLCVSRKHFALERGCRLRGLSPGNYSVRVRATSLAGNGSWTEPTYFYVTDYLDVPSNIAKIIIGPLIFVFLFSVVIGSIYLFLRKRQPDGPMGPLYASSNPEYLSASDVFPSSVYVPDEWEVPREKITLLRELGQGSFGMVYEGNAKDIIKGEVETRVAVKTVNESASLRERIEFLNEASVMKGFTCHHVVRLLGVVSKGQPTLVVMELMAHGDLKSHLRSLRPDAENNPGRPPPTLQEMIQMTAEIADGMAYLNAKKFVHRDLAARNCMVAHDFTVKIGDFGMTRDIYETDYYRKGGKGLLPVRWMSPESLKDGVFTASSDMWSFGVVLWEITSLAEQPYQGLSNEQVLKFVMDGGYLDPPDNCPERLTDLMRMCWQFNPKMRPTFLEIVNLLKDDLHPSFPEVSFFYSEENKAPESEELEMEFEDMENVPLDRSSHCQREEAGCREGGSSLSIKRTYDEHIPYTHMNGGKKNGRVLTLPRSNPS

[3] = target: T2, Cholecystokinin receptor type A (Homo sapiens, UniProt P32238); assay type: cell membranes, Membrane; details: 1321-n1; further: in other assays of this panel Not Active means under 50% inhibition at 10 µM
T2 sequence (P32238 whole entry): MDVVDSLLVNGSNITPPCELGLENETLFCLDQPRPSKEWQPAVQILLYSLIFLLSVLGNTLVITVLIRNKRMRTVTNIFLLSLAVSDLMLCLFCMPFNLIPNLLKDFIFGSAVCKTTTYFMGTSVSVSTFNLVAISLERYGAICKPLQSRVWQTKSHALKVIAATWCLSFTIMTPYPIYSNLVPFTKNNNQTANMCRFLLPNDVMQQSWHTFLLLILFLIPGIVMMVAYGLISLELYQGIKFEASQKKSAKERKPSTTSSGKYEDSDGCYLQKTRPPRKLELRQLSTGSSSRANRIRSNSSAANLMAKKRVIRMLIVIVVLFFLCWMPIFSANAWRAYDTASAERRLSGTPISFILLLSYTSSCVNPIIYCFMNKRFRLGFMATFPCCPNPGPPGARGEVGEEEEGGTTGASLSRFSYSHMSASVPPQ

[4] = target: Epidermal growth factor receptor (Homo sapiens, UniProt P00533); experiment: DRUGMATRIX: Protein Tyrosine Kinase, EGF Receptor enzyme inhibition (substrate: Poly(Glu:Tyr)); assay type: cell-based, Insect cells; details: insect cells; Not Active = under 50% inhibition at 10 µM
Epidermal growth factor receptor, sequence (P00533 whole entry): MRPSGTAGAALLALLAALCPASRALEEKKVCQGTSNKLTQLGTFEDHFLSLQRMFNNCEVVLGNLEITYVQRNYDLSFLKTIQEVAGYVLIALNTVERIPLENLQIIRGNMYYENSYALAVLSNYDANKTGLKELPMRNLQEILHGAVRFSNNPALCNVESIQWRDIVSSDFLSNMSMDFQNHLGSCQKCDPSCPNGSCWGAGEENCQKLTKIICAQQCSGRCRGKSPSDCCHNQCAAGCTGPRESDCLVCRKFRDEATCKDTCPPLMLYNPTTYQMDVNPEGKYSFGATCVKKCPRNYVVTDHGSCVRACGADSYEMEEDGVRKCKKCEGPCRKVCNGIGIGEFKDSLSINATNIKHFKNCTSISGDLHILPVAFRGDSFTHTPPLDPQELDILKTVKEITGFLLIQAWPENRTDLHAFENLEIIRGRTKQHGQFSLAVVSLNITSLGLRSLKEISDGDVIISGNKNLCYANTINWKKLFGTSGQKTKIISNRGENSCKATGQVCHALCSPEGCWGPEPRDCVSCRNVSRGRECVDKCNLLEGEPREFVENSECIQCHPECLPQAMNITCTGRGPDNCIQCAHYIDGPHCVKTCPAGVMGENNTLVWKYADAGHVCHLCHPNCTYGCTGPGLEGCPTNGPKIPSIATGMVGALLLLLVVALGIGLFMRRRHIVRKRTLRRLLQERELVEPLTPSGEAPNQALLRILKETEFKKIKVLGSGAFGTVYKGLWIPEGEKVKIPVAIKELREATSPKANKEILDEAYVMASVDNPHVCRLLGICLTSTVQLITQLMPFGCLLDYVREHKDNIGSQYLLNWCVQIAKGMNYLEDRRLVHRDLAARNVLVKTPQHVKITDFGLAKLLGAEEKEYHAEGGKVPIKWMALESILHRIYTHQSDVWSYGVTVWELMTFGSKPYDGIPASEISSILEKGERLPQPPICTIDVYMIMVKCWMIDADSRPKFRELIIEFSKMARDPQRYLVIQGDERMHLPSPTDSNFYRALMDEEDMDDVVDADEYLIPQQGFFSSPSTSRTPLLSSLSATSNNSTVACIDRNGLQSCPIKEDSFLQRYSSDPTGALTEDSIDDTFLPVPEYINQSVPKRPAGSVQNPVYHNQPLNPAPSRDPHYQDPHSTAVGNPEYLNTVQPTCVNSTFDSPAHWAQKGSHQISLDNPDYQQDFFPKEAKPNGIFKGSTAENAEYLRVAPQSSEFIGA

[5] = target: Delta-type opioid receptor (Homo sapiens, UniProt P41143); assay type: cell membranes, HEK293, Membrane; details: hek293; further: in other assays of this panel Not Active means under 50% inhibition at 10 µM
Delta-type opioid receptor, sequence (P41143 whole entry): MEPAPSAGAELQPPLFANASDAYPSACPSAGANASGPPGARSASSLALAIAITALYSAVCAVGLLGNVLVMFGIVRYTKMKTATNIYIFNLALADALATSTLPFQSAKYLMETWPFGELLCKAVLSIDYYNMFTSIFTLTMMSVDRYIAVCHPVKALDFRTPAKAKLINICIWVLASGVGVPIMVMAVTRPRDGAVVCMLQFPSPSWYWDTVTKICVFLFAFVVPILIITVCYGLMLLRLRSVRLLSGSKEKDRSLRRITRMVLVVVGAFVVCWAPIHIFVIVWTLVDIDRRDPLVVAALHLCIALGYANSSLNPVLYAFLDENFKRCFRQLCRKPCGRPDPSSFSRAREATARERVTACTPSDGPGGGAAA

[6] = DRUGMATRIX: Glutamate, AMPA radioligand binding (ligand: [3H] AMPA); assay type: cell membranes, Rattus norvegicus, Wistar, Cerebral cortex, Membrane; details: Not Active = under 50% inhibition at 10 µM

CC(Cl)(Cl)Cl [TRICHLOROETHANE]
Not Active: IC50 [1] | IC50 [2] | Ki [2] | IC50 (Insulin receptor) | IC50 [3] | IC50 [4] | IC50 [5] | IC50 [6] | Ki [6]

O=C(O)c1cc(/N=N/c2ccc(S(=O)(=O)Nc3ccccn3)cc2)ccc1O [SULFASALAZINE]
Not Active: IC50 [1] | IC50 [2] | Ki [2] | IC50 (Insulin receptor) | IC50 [3] | IC50 [4] | IC50 [5] | IC50 [6] | Ki [6]

Cc1cccc(C)c1NC(=O)C(C)N (stereo unspecified) [TOCAINIDE]
Not Active: IC50 [1] | IC50 [2] | Ki [2] | IC50 (Insulin receptor) | IC50 [3] | IC50 [4] | IC50 [5] | IC50 [6] | Ki [6]

CO[C@@]12[C@H](COC(N)=O)C3=C(C(=O)C(C)=C(N)C3=O)N1C[C@@H]1N[C@@H]12 [MITOMYCIN]
Not Active: IC50 [1] | IC50 [2] | Ki [2] | IC50 (Insulin receptor) | IC50 [3] | IC50 [4] | IC50 [5] | IC50 [6] | Ki [6]

Nc1nc(N)c2nc(-c3ccccc3)c(N)nc2n1
Not Active: IC50 [1] | IC50 [2] | Ki [2] | IC50 (Insulin receptor) | IC50 [3] | IC50 [4] | IC50 [5] | IC50 [6] | Ki [6]

CC1=C(/C=C/C(C)=C/C=C/C(C)=C/C(=O)O)C(C)(C)CCC1 [TRETINOIN]
Not Active: IC50 [1] | IC50 [2] | Ki [2] | IC50 (Insulin receptor) | IC50 [3] | IC50 [4] | IC50 [5] | IC50 [6] | Ki [6]

CC[C@@]1(O)C(=O)OCc2c1cc1n(c2=O)Cc2cc3c(CN(C)C)c(O)ccc3nc2-1 [TOPOTECAN]
Not Active: IC50 [1] | IC50 [2] | Ki [2] | IC50 (Insulin receptor) | IC50 [3] | IC50 [4] | IC50 [5] | IC50 [6] | Ki [6]

Cc1ccc(Cl)c(Nc2ccccc2C(=O)O)c1Cl [MECLOFENAMIC ACID]
Not Active: IC50 [1] | IC50 [2] | Ki [2] | IC50 (Insulin receptor) | IC50 [3] | IC50 [4] | IC50 [5] | IC50 [6] | Ki [6]

CCOc1cc(N)c(Cl)cc1C(=O)NCC1CN(Cc2ccc(F)cc2)CCO1 (stereo unspecified) [MOSAPRIDE]
Not Active: IC50 [1] | IC50 [2] | Ki [2] | IC50 (Insulin receptor) | IC50 [3] | IC50 [4] | IC50 [5] | IC50 [6] | Ki [6]
